The target in the assay is human GPBAR1 receptor (Homo sapiens (Human), UniProt Q8TDU6). As to the kind of experiment: functional cAMP assay in CHO-dhfr(minus) cells expressing human GPBAR1 receptors. Format: cell-based. The note with it: CHO-dhfr(minus) cells expressing human GPBAR1, 30 min at 30° C. Here is the method:
The final clone was verified by DNA sequence analysis. The plasmid was transfected into CHO cells deficient in dihydrofolate reductase activity (CHO-dhfr-) using Lipofectamine plus (Invitrogen). Clones were isolated in limited dilution conditions and identified by activities in the cAMP assay using lithocholic acid as agonist.
EC50 values were determined using Activity Base analysis (ID Business Solution, Limited). […] Specificity for GPBAR1 was tested in non-transfected CHO cells in the same assay as above.
Background: cAMP levels reflect the balance of adenylyl cyclase and phosphodiesterase activity.

Our source for the EC50 values is US10385022B2, “3-amino-pyridines as GPBAR1 agonists” (HOFFMANN-LA ROCHE INC., priority 2011, dated 2019).

Chain of human GPBAR1 receptor (Q8TDU6 whole entry): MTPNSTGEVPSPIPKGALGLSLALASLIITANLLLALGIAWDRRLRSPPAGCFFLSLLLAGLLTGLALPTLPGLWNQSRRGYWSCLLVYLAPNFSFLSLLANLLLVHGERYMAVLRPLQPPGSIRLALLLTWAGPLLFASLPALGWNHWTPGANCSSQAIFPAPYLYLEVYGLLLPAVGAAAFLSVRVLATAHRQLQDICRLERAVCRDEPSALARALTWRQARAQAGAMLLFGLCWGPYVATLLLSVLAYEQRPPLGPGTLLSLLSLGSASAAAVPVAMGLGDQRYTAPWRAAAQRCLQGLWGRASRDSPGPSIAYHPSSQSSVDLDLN

Take `COc1c(-c2ccncc2N(C)C(=O)c2cc(C(F)(F)F)cc(C(F)(F)F)c2)ccc(F)c1F` [Example 60, N-[4-(3,4-Difluoro-2-methoxy-phenyl)-pyridin-3-yl]-N-methyl-3,5-bis-trifluoromethyl-benzamide]: the EC50 – broadly, the concentration needed to bring the measured effect to its halfway point – worked out at 114 nM. With `CN(C(=O)c1cc(C(F)(F)F)cc(C(F)(F)F)c1)c1cnccc1-c1cc(F)ccc1F` [Example 61, N-[4-(2,5-Difluoro-phenyl)-pyridin-3-yl]-N-methyl-3,5-bis-trifluoromethyl-benzamide] the figure was 72 nM. In the case of `COc1cccc(-c2ccncc2N(C)C(=O)c2cc(C(F)(F)F)cc(C(F)(F)F)c2)c1F` [Example 62, N-[4-(2-Fluoro-3-methoxy-phenyl)-pyridin-3-yl]-N-methyl-3,5-bis-trifluoromethyl-benzamide], a half-maximal response (EC50) required 337 nM. The molecule `COc1ccc(F)c(-c2ccncc2N(C)C(=O)c2cc(C(F)(F)F)cc(C(F)(F)F)c2)c1` [Example 63, N-[4-(2-Fluoro-5-methoxy-phenyl)-pyridin-3-yl]-N-methyl-3,5-bis-trifluoromethyl-benzamide] registered a concentration for a half-maximal effect (EC50) of 23 nM.

`CN(C(=O)c1cc(C(F)(F)F)cc(C(F)(F)F)c1)c1cnccc1-c1c(F)cccc1F` [Example 64, N-[4-(2,6-Difluoro-phenyl)-pyridin-3-yl]-N-methyl-3,5-bis-trifluoromethyl-benzamide] had an EC50 of 14 nM. With `CN(C(=O)c1cc(C(F)(F)F)cc(C(F)(F)F)c1)c1cnccc1-c1cccc(F)c1Cl` [Example 65, N-[4-(2-Chloro-3-fluoro-phenyl)-pyridin-3-yl]-N-methyl-3,5-bis-trifluoromethyl-benzamide] the figure was 102 nM; with `COc1cccc(F)c1-c1ccncc1N(C)C(=O)c1cc(C(F)(F)F)cc(C(F)(F)F)c1` [Example 66, N-[4-(2-Fluoro-6-methoxy-phenyl)-pyridin-3-yl]-N-methyl-3,5-bis-trifluoromethyl-benzamide], 8 nM; with `CN(C(=O)c1cc(C(F)(F)F)cc(C(F)(F)F)c1)c1cnccc1-c1ccc(F)cc1Cl` [Example 67, N-[4-(2-Chloro-4-fluoro-phenyl)-pyridin-3-yl]-N-methyl-3,5-bis-trifluoromethyl-benzamide], 56 nM. To `CN(C(=O)c1cc(C(F)(F)F)cc(C(F)(F)F)c1)c1cnccc1-c1ncccc1F` [Example 68, N-(3-Fluoro-[2,4′]bipyridinyl-3′-yl)-N-methyl-3,5-bis-trifluoromethyl-benzamide] belongs 801 nM.

On to `COc1cnccc1-c1ccncc1N(C)C(=O)c1cc(C(F)(F)F)cc(C(F)(F)F)c1` [Example 69, N-(3′-Methoxy-[4,4′]bipyridinyl-3-yl)-N-methyl-3,5-bis-trifluoromethyl-benzamide], for which the EC50 came to 377 nM. This EC50 is about 2.1-fold lower than that of the molecule before. To `CN(C(=O)c1cc(C(F)(F)F)cc(C(F)(F)F)c1)c1cnccc1-c1ccncc1F` [Example 70, N-(3′-Fluoro-[4,4′]bipyridinyl-3-yl)-N-methyl-3,5-bis-trifluoromethyl-benzamide] belongs 485 nM; to `CN(C(=O)c1cc(C(F)(F)F)cc(C(F)(F)F)c1)c1cnccc1-c1cccc(Cl)n1` [Example 71, N-(6-Chloro-[2,4′]bipyridinyl-3′-yl)-N-methyl-3,5-bis-trifluoromethyl-benzamide], 1540 nM. With `Cc1cc(F)ccc1-c1cc(Cl)ncc1N(C)C(=O)c1cc(C(F)(F)F)cc(C(F)(F)F)c1` [Example 72, N-[6-Chloro-4-(4-fluoro-2-methyl-phenyl)-pyridin-3-yl]-N-methyl-3,5-bis-trifluoromethyl-benzamide] the figure was 593 nM.

With `CN(C(=O)c1cc(C(F)(F)F)cc(C(F)(F)F)c1)c1cnc(Cl)cc1-c1ncccc1Cl` [Example 73, N-(3,6′-Dichloro-[2,4′]bipyridinyl-3′-yl)-N-methyl-3,5-bis-trifluoromethyl-benzamide], the half-maximal effective concentration (EC50) turned out to be 1830 nM.

Molecule `CN(C(=O)c1cc(Br)cc(C(F)(F)F)c1)c1cnccc1-c1ccccc1Cl` [Example 74, 3-Bromo-N-[4-(2-chloro-phenyl)-pyridin-3-yl]-N-methyl-5-trifluoromethyl-benzamide] displayed an EC50 of 34 nM. With `COC(=O)c1cc(C(=O)N(C)c2cnccc2-c2ccccc2Cl)cc(C(F)(F)F)c1` [Example 75, N-[4-(2-Chloro-phenyl)-pyridin-3-yl]-N-methyl-5-trifluoromethyl-isophthalamic acid methyl ester] the figure was 452 nM; with `CN(C(=O)c1cc(CO)cc(C(F)(F)F)c1)c1cnccc1-c1ccccc1Cl` [Example 76, N-[4-(2-Chloro-phenyl)-pyridin-3-yl]-3-hydroxymethyl-N-methyl-5-trifluoromethyl-benzamide], 1960 nM; with `CN(C(=O)c1cc(C(C)(C)O)cc(C(F)(F)F)c1)c1cnccc1-c1ccccc1Cl` [Example 77, N-[4-(2-Chloro-phenyl)-pyridin-3-yl]-3-(1-hydroxy-1-methyl-ethyl)-N-methyl-5-trifluoromethyl-benzamide], 715 nM. With `CN(C(=O)c1cc(C(F)(F)F)cc(C(F)(F)F)c1)c1cnccc1-c1ccccc1Cl` [Example 78, N-[4-(2-Chloro-phenyl)-pyridin-3-yl]-N-methyl-3,5-bis-trifluoromethyl-benzamide] the figure was 21 nM; with `CN(C(=O)c1cc(O)cc(C(F)(F)F)c1)c1cnccc1-c1ccccc1Cl` [Example 79, N-[4-(2-Chloro-phenyl)-pyridin-3-yl]-3-hydroxy-N-methyl-5-trifluoromethyl-benzamide], 1380 nM; with `CN(C(=O)c1ccc(Br)c(C(F)(F)F)c1)c1cnccc1-c1ccccc1Cl` [Example 80, 4-Bromo-N-[4-(2-chloro-phenyl)-pyridin-3-yl]-N-methyl-3-trifluoromethyl-benzamide], 299 nM. To `Cc1ccc(Cl)cc1-c1ccncc1N(C)C(=O)c1cc(C(F)(F)F)cc(C(F)(F)F)c1` [Example 82, N-[4-(5-Chloro-2-methyl-phenyl)-pyridin-3-yl]-N-methyl-3,5-bis-trifluoromethyl-benzamide] belongs 234 nM; to `COC(=O)c1ccc(C)c(-c2ccncc2N(C)C(=O)c2cc(C(F)(F)F)cc(C(F)(F)F)c2)c1` [Example 83, 3-{3-[(3,5-Bis-trifluoromethyl-benzoyl)-methyl-amino]-pyridin-4-yl}-4-methyl-benzoic acid methyl ester], 376 nM.

As for `Cc1ccc(C(=O)O)cc1-c1ccncc1N(C)C(=O)c1cc(C(F)(F)F)cc(C(F)(F)F)c1` [Example 84, 3-{3-[(3,5-Bis-trifluoromethyl-benzoyl)-methyl-amino]-pyridin-4-yl}-4-methyl-benzoic acid], a half-maximal response (EC50) required 2020 nM. Compared with the last molecule, the EC50 is about 5.4-fold higher. To `O=C(c1cc(C(F)(F)F)cc(C(F)(F)F)c1)N(CC(F)(F)F)c1cnccc1-c1ccccc1Cl` [Example 85, N-[4-(2-Chloro-phenyl)-pyridin-3-yl]-N-(2,2,2-trifluoro-ethyl)-3,5-bis-trifluoromethyl-benzamide] belongs 200 nM. With `O=C(c1cc(C(F)(F)F)cc(C(F)(F)F)c1)N(CC1CC1)c1cnccc1-c1ccccc1Cl` [Example 86, N-[4-(2-Chloro-phenyl)-pyridin-3-yl]-N-cyclopropylmethyl-3,5-bis-trifluoromethyl-benzamide] the figure was 267 nM; with `COC(=O)CN(C(=O)c1cc(C(F)(F)F)cc(C(F)(F)F)c1)c1cnccc1-c1ccccc1Cl` [Example 88, {(3,5-Bis-trifluoromethyl-benzoyl)-[4-(2-chloro-phenyl)-pyridin-3-yl]-amino}-acetic acid methyl ester], 66 nM. To `COCCN(C(=O)c1cc(C(F)(F)F)cc(C(F)(F)F)c1)c1cnccc1-c1ccccc1Cl` [Example 89, N-[4-(2-Chloro-phenyl)-pyridin-3-yl]-N-(2-methoxy-ethyl)-3,5-bis-trifluoromethyl-benzamide] belongs 8 nM. As for `Cc1ccccc1-c1ccncc1N(C)C(=O)c1ccc(C(F)(F)F)cc1` [Example 90, N-Methyl-N-(4-o-tolyl-pyridin-3-yl)-4-trifluoromethyl-benzamide], the EC50 is 2740 nM. To `Cc1ccccc1-c1ccncc1N(C)C(=O)c1ccc(C)c(C(F)(F)F)c1` [Example 91, 4,N-Dimethyl-N-(4-o-tolyl-pyridin-3-yl)-3-trifluoromethyl-benzamide] belongs 152 nM.

Molecule `COc1ccc(C(=O)N(C)c2cnccc2-c2ccccc2C)cc1C(F)(F)F` [Example 92, 4-Methoxy-N-methyl-N-(4-o-tolyl-pyridin-3-yl)-3-trifluoromethyl-benzamide] came in with a 50% effective concentration (EC50) of 236 nM. The molecule `CN(C(=O)c1cc(C(F)(F)F)cc(C(F)(F)F)c1)c1cnccc1-c1ccccc1CCO` [Example 93, N-{4-[2-(2-Hydroxy-ethyl)-phenyl]-pyridin-3-yl}-N-methyl-3,5-bis-trifluoromethyl-benzamide] came in with an EC50 of 2260 nM. The molecule `Cc1ccccc1-c1ccncc1N(C)C(=O)c1ccc(C(F)(F)F)c(F)c1` [Example 94, 3-Fluoro-N-methyl-N-(4-o-tolyl-pyridin-3-yl)-4-trifluoromethyl-benzamide] returned an EC50 of 2160 nM. To `Cc1ccccc1-c1ccncc1N(C)C(=O)c1ccc(Cl)c(C(F)(F)F)c1` [Example 95, 4-Chloro-N-methyl-N-(4-o-tolyl-pyridin-3-yl)-3-trifluoromethyl-benzamide] belongs 92 nM; to `Cc1cc(C)cc(C(=O)N(C)c2cnccc2-c2ccccc2C)c1` [Example 96, 3,5,N-Trimethyl-N-(4-o-tolyl-pyridin-3-yl)-benzamide], 127 nM. To `Cc1ccccc1-c1ccncc1N(C)C(=O)c1ccc(C(F)(F)F)c(Cl)c1` [Example 97, 3-Chloro-N-methyl-N-(4-o-tolyl-pyridin-3-yl)-4-trifluoromethyl-benzamide] belongs 721 nM.
